The values below come from patent US9085806B2, “Methods for treating infection involving identification of a carbapanemase gene” (priority 2007, dated 2015).

What all share (assay): Antimicrobial susceptibility testing, broth microdilution (CLSI)
Type in all cases: cell-based

One experiment deals with E. coli Strain ID 301894. Conditions: Escherichia coli; Strain ID 301894 ESCCOL, ESBL positive; Mueller-Hinton broth; read-out: minimum inhibition concentration (MIC). From the text:
(§1) Carbapenem-resistant Klebsiella and E. coli were identified by broth microdilution as described by CLSI from the BD ID/AST microbial bank (1). Wild-type (Ampicillin sensitive) E. coli ATCC 25922 (Strain ID 300960) was used through out the experiments as a negative control. Three strains previously determined to contain KPC-1, KPC-2, and KPC-3 (Strain ID 301916=KPC-1, 301917=KPC-2, 301918=KPC-3) were used as positive controls (4). […] ESBL positive strains were identified using the CLSI recommended broth microdilution assay (2). Prior to any processing or extraction, all strains were streaked out on Trypticase Soy Agar (TSA) plates containing 5% Sheep red blood cells (BD Diagnostic Systems, Sparks, Md.) and grown at 35° C. overnight.
(§2) Antimicrobial susceptibility testing was performed using Mueller-Hinton broth (BD Diagnostic Systems, Sparks, Md.) as described by CLSI (1). Antimicrobial powders were acquired from the following companies; Ampicillin (Amp) and Cefotaxime (CTX) (Sigma Chemical Co., St. Louis, Mo.), Ceftazidime (CAZ) (Eli Lilly, Indianapolis, Ind.), Clavulanic acid (Smith-Kline, King of Prussia, Pa.), Imipenem (IPM) (Merck & Co., Rahway, N.J.).
(§3) The BD ID/AST Microbial Bank was screened for carbapenem-resistant Klebsiella and E. coli with broth microdilution as described by CLSI (2). Klebsiella spp. and E. coli were chosen because they are the primary reservoir species for the plasmid-borne KPC gene.
(§4) ESBL positive strains were identified using the CLSI recommended broth microdilution assay (2). Briefly, this broth microdilution assay has a two-fold dilution scheme between a defined range of the antimicrobial agent. For example, where the defined range of the antimicrobial agent is […], the two-fold dilution between wells is represented by 0.25, 0.5, 1, 2, 4, 8, and 16 μg/ml. To identify ESBL positive strains, growth is evaluated in wells containing the antimicrobial agent of interest at these various two-fold dilutions across the defined range either alone or in combination with Clavulanic acid in order to determine the MIC for the antimicrobial agent alone or in combination with Clavulanic acid. […] A wild-type E. coli Strain ID 300960 was also screened and used as a negative control for all of the real-time assays.

Experiment [1] has as its system Klebsiella pneumoniae Strain ID 301916 (KPC-1). Conditions: Strain ID 301916 KLEPNEP, KPC-1 positive control, Mueller-Hinton broth, read-out: minimum inhibition concentration (MIC).
Description: as §1, §2, §3, §4

Experiment [2] has as its system Klebsiella pneumoniae Strain ID 301008. Conditions: Strain ID 301008 KLEPNEP, Mueller-Hinton broth, read-out: minimum inhibition concentration (MIC).
Description: as §1, §2, §3, §4

Another experiment concerns E. coli Strain ID 301892. Conditions: Escherichia coli; Strain ID 301892 ESCCOL, ESBL positive; Mueller-Hinton broth; read-out: minimum inhibition concentration (MIC).
Description: as §1, §2, §3, §4

For experiment [3], the system named is Klebsiella oxytoca Strain ID 300967. Conditions: Strain ID 300967 KLEOXY, Mueller-Hinton broth, read-out: minimum inhibition concentration (MIC).
Description: as §1, §2, §3, §4

A further experiment relates to E. coli Strain ID 303364. The note with it: Escherichia coli; Strain ID 303364 ESCCOL; Mueller-Hinton broth; read-out: minimum inhibition concentration (MIC).
Description: as §1, §2, §3, §4

Experiment [4] has as its system Klebsiella pneumoniae Strain ID 301899. The note with it: Strain ID 301899 KLEPNEP, Mueller-Hinton broth, read-out: minimum inhibition concentration (MIC).
Description: as §1, §2, §3, §4

Experiment [5] concerns Klebsiella pneumoniae Strain ID 303375. The note with it: Strain ID 303375 KLEPNEP, Mueller-Hinton broth, read-out: minimum inhibition concentration (MIC).
Description: as §1, §2, §3, §4

The subject of a further experiment is E. coli Strain ID 303369. Conditions: Escherichia coli; Strain ID 303369 ESCCOL; Mueller-Hinton broth; read-out: minimum inhibition concentration (MIC).
Description: as §1, §2, §3, §4

Experiment [6] deals with Klebsiella pneumoniae Strain ID 301898. The note with it: Strain ID 301898 KLEPNEP, Mueller-Hinton broth, read-out: minimum inhibition concentration (MIC).
Description: as §1, §2, §3, §4

The test system of experiment [7] is Klebsiella oxytoca Strain ID 303990. Conditions: Strain ID 303990 KLEOXY, Mueller-Hinton broth, read-out: minimum inhibition concentration (MIC).
Description: as §1, §2, §3, §4

In experiment [8] the test system is Klebsiella pneumoniae Strain ID 301917 (KPC-2). Conditions: Strain ID 301917 KLEPNEP, KPC-2 positive control, ESBL positive, Mueller-Hinton broth, read-out: minimum inhibition concentration (MIC).
Description: as §1, §2, §3, §4

Another experiment concerns E. coli Strain ID 301921. Conditions: Escherichia coli; Strain ID 301921 ESCCOL, ESBL positive; Mueller-Hinton broth; read-out: minimum inhibition concentration (MIC).
Description: as §1, §2, §3, §4

In experiment [9] the test system is E. coli ATCC 25922 (Strain ID 300960). Conditions: Escherichia coli, ATCC25922; Strain ID 300960 ESCCOL, wild-type negative control; Mueller-Hinton broth; read-out: minimum inhibition concentration (MIC).
Description: as §1, §2, §3, §4

The subject of experiment [10] is Klebsiella pneumoniae Strain ID 301919. Conditions: Strain ID 301919 KLEPNEP, ESBL positive, Mueller-Hinton broth, read-out: minimum inhibition concentration (MIC).
Description: as §1, §2, §3, §4

The test system of another experiment is E. coli Strain ID 303365. Conditions: Escherichia coli; Strain ID 303365 ESCCOL, ESBL positive; Mueller-Hinton broth; read-out: minimum inhibition concentration (MIC).
Description: as §1, §2, §3, §4

The test system of experiment [11] is Klebsiella pneumoniae Strain ID 301920. Conditions: Strain ID 301920 KLEPNEP, ESBL positive, Mueller-Hinton broth, read-out: minimum inhibition concentration (MIC).
Description: as §1, §2, §3, §4

A further experiment has as its system E. coli Strain ID 301896. Conditions: Escherichia coli; Strain ID 301896 ESCCOL, ESBL positive; Mueller-Hinton broth; read-out: minimum inhibition concentration (MIC).
Description: as §1, §2, §3, §4

Experiment [12] deals with Klebsiella pneumoniae Strain ID 301891. The note with it: Strain ID 301891 KLEPNEP, Mueller-Hinton broth, read-out: minimum inhibition concentration (MIC).
Description: as §1, §2, §3, §4

For a further experiment, the system named is E. coli Strain ID 301905. The note with it: Escherichia coli; Strain ID 301905 ESCCOL; Mueller-Hinton broth; read-out: minimum inhibition concentration (MIC).
Description: as §1, §2, §3, §4

Experiment [13] relates to E. coli Strain ID 301918 (KPC-3). The note with it: Escherichia coli; Strain ID 301918 ESCCOL, KPC-3 positive control; Mueller-Hinton broth; read-out: minimum inhibition concentration (MIC).
Description: as §1, §2, §3, §4

Another experiment deals with E. coli Strain ID 301922. Conditions: Escherichia coli; Strain ID 301922 ESCCOL, ESBL positive; Mueller-Hinton broth; read-out: minimum inhibition concentration (MIC).
Description: as §1, §2, §3, §4

Experiment [14] deals with Klebsiella pneumoniae Strain ID 300996. The note with it: Strain ID 300996 KLEPNEP, ESBL positive, Mueller-Hinton broth, read-out: minimum inhibition concentration (MIC).
Description: as §1, §2, §3, §4

A further experiment relates to E. coli Strain ID 301888. Conditions: Escherichia coli; Strain ID 301888 ESCCOL, ESBL positive; Mueller-Hinton broth; read-out: minimum inhibition concentration (MIC).
Description: as §1, §2, §3, §4

Where only a bound is given, the exact number is not on record here.

On to `CC1(C)S[C@@H]2[C@H](NC(=O)[C@H](N)c3ccccc3)C(=O)N2[C@H]1C(=O)O` [Amp, Ampicillin], for which the MIC in the experiment on E. coli Strain ID 301894 is over 32 µg/mL; in experiment [1] it was over 32 µg/mL; in [2], 16 µg/mL; in the experiment with E. coli Strain ID 301892, over 32 µg/mL; in experiment [3] it was over 32 µg/mL; in the experiment with E. coli Strain ID 303364 it was over 32 µg/mL. Further, the MIC (in experiment [4]; in experiment [5]; in the experiment with E. coli Strain ID 303369; in experiment [6]; in experiment [7]; in [8]) was over 32 µg/mL in each case. Further, the MIC with E. coli Strain ID 301921 was over 32 µg/mL; in experiment [9] it was at most 0.25 µg/mL; in [10], over 32 µg/mL; in the experiment on E. coli Strain ID 303365 it was over 32 µg/mL; in [11] it was over 32 µg/mL; in the experiment on E. coli Strain ID 301896, over 32 µg/mL. For the same molecule, the MIC (in [12]; with E. coli Strain ID 301905; in experiment [13]; in the experiment with E. coli Strain ID 301922; in [14]; in the experiment on E. coli Strain ID 301888) was over 32 µg/mL throughout.

`CC(C)(O/N=C(\C(=O)N[C@@H]1C(=O)N2C(C(=O)[O-])=C(C[n+]3ccccc3)CS[C@H]12)c1csc(N)n1)C(=O)O` [CAZ, Ceftazidime]: the MIC with E. coli Strain ID 301894 was over 128 µg/mL; in experiment [1], over 128 µg/mL; in experiment [2] it was at most 0.25 µg/mL; in the experiment on E. coli Strain ID 301892 it was 64 µg/mL; in experiment [3], 128 µg/mL; with E. coli Strain ID 303364, 128 µg/mL. Moreover, the MIC in experiment [4] is over 128 µg/mL; in experiment [5], 64 µg/mL; in the experiment with E. coli Strain ID 303369, 64 µg/mL; in experiment [6] it was over 128 µg/mL; in experiment [7], 128 µg/mL; in experiment [8] it was 4 µg/mL. The MIC in the experiment with E. coli Strain ID 301921 was 32 µg/mL; in experiment [9], at most 0.5 µg/mL; in experiment [10], 32 µg/mL; in the experiment with E. coli Strain ID 303365, over 128 µg/mL; in experiment [11], 64 µg/mL; in the experiment on E. coli Strain ID 301896, over 128 µg/mL. Also, the MIC was 16 µg/mL in experiment [12]; 32 µg/mL with E. coli Strain ID 301905; over 128 µg/mL in experiment [13]; 16 µg/mL with E. coli Strain ID 301922; 4 µg/mL in experiment [14]; 64 µg/mL in the experiment with E. coli Strain ID 301888.

With `CO/N=C(\C(=O)N[C@@H]1C(=O)N2C(C(=O)O)=C(COC(C)=O)CS[C@H]12)c1csc(N)n1` [CTX, Cefotaxime], the MIC is 16 µg/mL in the experiment on E. coli Strain ID 301894; over 64 µg/mL in [1]; at most 0.25 µg/mL in experiment [2]; 32 µg/mL in the experiment on E. coli Strain ID 301892; over 64 µg/mL in experiment [3]; 32 µg/mL with E. coli Strain ID 303364. Also, the MIC in [4] is over 64 µg/mL; in experiment [5], 32 µg/mL; with E. coli Strain ID 303369, 32 µg/mL; in experiment [6] it was over 64 µg/mL; in experiment [7], over 64 µg/mL; in experiment [8] it was 32 µg/mL. Also, the MIC with E. coli Strain ID 301921 is over 64 µg/mL; in experiment [9] it was at most 0.25 µg/mL; in experiment [10], 16 µg/mL; in the experiment on E. coli Strain ID 303365, over 64 µg/mL; in experiment [11], over 64 µg/mL; in the experiment with E. coli Strain ID 301896 it was 64 µg/mL. Besides, the MIC in [12] is 4 µg/mL; in the experiment with E. coli Strain ID 301905, over 64 µg/mL; in experiment [13], over 64 µg/mL; with E. coli Strain ID 301922 it was over 64 µg/mL; in experiment [14] it was 2 µg/mL; in the experiment on E. coli Strain ID 301888, 32 µg/mL.

Turning to `C[C@@H](O)[C@H]1C(=O)N2C(C(=O)O)=C(SCCN=CN)C[C@H]12` [IPM, Imipenem], the MIC in the experiment on E. coli Strain ID 301894 was at most 2 µg/mL; in [1], 8 µg/mL; in experiment [2], at most 2 µg/mL; in the experiment with E. coli Strain ID 301892 it was 4 µg/mL; in experiment [3], over 16 µg/mL; in the experiment on E. coli Strain ID 303364, at most 2 µg/mL. The MIC is 4 µg/mL in [4]; at most 2 µg/mL in experiment [5]; at most 2 µg/mL in the experiment with E. coli Strain ID 303369; 4 µg/mL in experiment [6]; 16 µg/mL in experiment [7]; 8 µg/mL in experiment [8]. Besides, the MIC in the experiment with E. coli Strain ID 301921 is at most 2 µg/mL; in experiment [9] it was at most 0.25 µg/mL; in experiment [10], at most 2 µg/mL; with E. coli Strain ID 303365, at most 2 µg/mL; in experiment [11], at most 2 µg/mL; with E. coli Strain ID 301896, at most 2 µg/mL. Further, the MIC is at most 2 µg/mL in experiment [12]; 8 µg/mL in the experiment with E. coli Strain ID 301905; 16 µg/mL in [13]; at most 0.25 µg/mL in the experiment on E. coli Strain ID 301922; 8 µg/mL in [14]; 4 µg/mL with E. coli Strain ID 301888.
